Results as given in patent US4473578A, “β-Lactam antibiotics and their use” (Beecham Group Limited, priority 1979, dated 1984).
≈ marks a conversion by molar mass, not a printed value. Structures can show the parent of a compound that is named as a salt. Where two headings read alike, the source gives them in different places.

Tests used:
Test in all cases: MIC in agar
Type in all cases: cell-based
E. coli ESS = conditions: Escherichia coli
Text: | (μg/ml) in agar of compound

[1] = test system: Salmonella typhimurium CT10; conditions: Salmonella enterica; in agar; Salmonella typhimurium CT10; read-out: M.I.C.
Text: (§1) a. Antibacterial effectiveness of compounds of
(§2) Examples 6 and 7 in agar.
(§3) (μg/ml) in agar of compound

[2] = test system: Staphylococcus aureus Oxford; conditions: in agar; Staphylococcus aureus Oxford; read-out: M.I.C.
Text: as §1, §2, §3

Klebsiella aerogenes A = conditions: in agar; Klebsiella aerogenes A; read-out: M.I.C.
Text: as §1, §2, §3

[3] = test system: Streptococcus pyogenes CN10; conditions: in agar; Streptococcus pyogenes CN10; read-out: M.I.C.
Text: as §1, §2, §3

Citrobacter freundii E8 = conditions: in agar; Citrobacter freundii E8; read-out: M.I.C.
Text: as §1, §2, §3

Enterobacter cloacae N1 = conditions: in agar; Enterobacter cloacae N1; read-out: M.I.C.
Text: as §1, §2, §3

[4] = test system: Streptococcus pneumoniae CN33
Text: as §1, §2, §3

Streptococcus faecalis I = conditions: Enterococcus faecalis; in agar; Streptococcus faecalis I; read-out: M.I.C.
Text: as §1, §2, §3

Escherichia coli 0111 = test system: Escherichia coli 0111
Text: as §1, §2, §3

Serratia marcescens US20 = conditions: in agar; Serratia marcescens US20; read-out: M.I.C.
Text: as §1, §2, §3

Proteus rettgeri WM16 = conditions: Providencia rettgeri; in agar; Proteus rettgeri WM16; read-out: M.I.C.
Text: as §1, §2, §3

Bacillus subtilis A = conditions: in agar; Bacillus subtilis A; read-out: M.I.C.
Text: as §1, §2, §3

Escherichia coli JT39 = test system: Escherichia coli JT39
Text: as §1, §2, §3

[5] = test system: Staphylococcus aureus 1517; conditions: in agar; Staphylococcus aureus 1517; read-out: M.I.C.
Text: as §1, §2, §3

Proteus mirabilis C977 = conditions: in agar; Proteus mirabilis C977; read-out: M.I.C.
Text: as §1, §2, §3

Pseudomonas aeruginosa A = conditions: in agar; Pseudomonas aeruginosa A; read-out: M.I.C.
Text: as §1, §2, §3

Shigella sonnei MB 11967 = conditions: MB11967
Text: as §1, §2, §3

Proteus vulgaris W091 = conditions: in agar; Proteus vulgaris W091; read-out: M.I.C.
Text: as §1, §2, §3

Proteus morganii 1580 = conditions: Morganella morganii; in agar; Proteus morganii 1580; read-out: M.I.C.
Text: as §1, §2, §3

[6] = test system: Staphylococcus aureus Russell; conditions: in agar; Staphylococcus aureus Russell; read-out: M.I.C.
Text: as §1, §2, §3

For `C[C@H](O)[C@@H]1C(=O)N2C(C(=O)O)=C(S/C=C\C(=O)OCCN)C[C@H]12` [Example 20, (5R,6R)-3-[2-(Z)-(2-Aminoethoxycarbonyl)ethenylthio]-6-[(S)-1-hydroxyethyl]-7-oxo-1-azabicyclo[3.2.0]hept-2-ene-2-carboxylic acid], the MIC (E. coli ESS) was ≤ 0.1 µg/mL, the MIC [1] was ≤ 0.1 µg/mL and the MIC [2] was ≤ 0.1 µg/mL. For the same molecule, the MIC (Klebsiella aerogenes A) was ≤ 0.1 µg/mL, the MIC [3] was ≤ 0.1 µg/mL and the MIC (Citrobacter freundii E8) was 0.2 µg/mL (≈ 0.584 µM). For the same molecule, the MIC (Enterobacter cloacae N1) was 0.2 µg/mL (≈ 0.584 µM), the MIC [4] was ≤ 0.1 µg/mL and the MIC (Streptococcus faecalis I) was ≤ 0.1 µg/mL. The MIC (Escherichia coli 0111) was ≤ 0.1 µg/mL, the MIC (Serratia marcescens US20) was ≤ 0.1 µg/mL and the MIC (Proteus rettgeri WM16) was 0.2 µg/mL (≈ 0.584 µM). For the same molecule, the MIC (Bacillus subtilis A) was ≤ 0.1 µg/mL, the MIC (Escherichia coli JT39; Escherichia coli, JT39) was 0.2 µg/mL (≈ 0.584 µM) and the MIC [5] was 0.2 µg/mL (≈ 0.584 µM). It also gave an MIC (Proteus mirabilis C977) of 0.4 µg/mL (≈ 1.17 µM), an MIC (Pseudomonas aeruginosa A) of 25 µg/mL (≈ 73 µM) and an MIC (Shigella sonnei MB 11967) of 0.2 µg/mL (≈ 0.584 µM). The MIC (Proteus vulgaris W091) was 0.4 µg/mL (≈ 1.17 µM).

`C[C@H](O)[C@@H]1C(=O)N2C(C(=O)O)=C(S/C=C\C(=O)O)C[C@H]12` [Example 24, The Disodium salt of (5R,6R)-3-[(Z)-2-carboxyethenylthio]-6-[(S)-1-hydroxyethyl]-7-oxo-1-azabicyclo[3.2.0]hept-2-ene-2-carboxylic acid] was tested, and the MIC (E. coli ESS) was ≤ 0.1 µg/mL, the MIC [1] was 0.5 µg/mL and the MIC [2] was 0.5 µg/mL. The MIC (Klebsiella aerogenes A) was 0.2 µg/mL, the MIC [3] was ≤ 0.1 µg/mL and the MIC (Citrobacter freundii E8) was 1.2 µg/mL. For the same molecule, the MIC (Enterobacter cloacae N1) was 0.5 µg/mL, the MIC [4] was ≤ 0.1 µg/mL and the MIC (Streptococcus faecalis I) was 2.5 µg/mL. The MIC (Escherichia coli 0111) was 0.2 µg/mL, the MIC (Proteus morganii 1580) was 0.5 µg/mL and the MIC (Serratia marcescens US20) was 2.5 µg/mL. The MIC (Proteus rettgeri WM16) was 0.5 µg/mL, the MIC (Bacillus subtilis A) was ≤ 0.1 µg/mL and the MIC [6] was 0.5 µg/mL. For the same molecule, the MIC (Escherichia coli JT39; in agar, Escherichia coli JT39, read-out: M.I.C.) was 5 µg/mL, the MIC [5] was 5 µg/mL and the MIC (Proteus mirabilis C977) was 0.5 µg/mL. For the same molecule, the MIC (Pseudomonas aeruginosa A) was > 50 µg/mL, the MIC (Shigella sonnei MB 11967) was 0.5 µg/mL and the MIC (Proteus vulgaris W091) was 0.5 µg/mL.
